# In patent EP0808325B1, “[…] […] SERIES FOR […] GABA RECEPTOR” (priority 1994, dated 1996):
# Like-named read-outs stand apart in the source and are kept apart here.
# Experiments:
# rats = experiment: Vogel test; type: in vivo; details: i.c.v.
# Description: The Vogel test is based on the development of a conflict between a highly motivated behavior and an aversion. For this test, the strong motivation is thirst. The animal is water deprived for 12-16 hrs to produce the motivation to drink. During the training period the animals are exposed to the testing environment so they become accustomed to the drinking spout and minimize the fear of a novel environment. Following training, the animals are allowed access to water for 2 hrs. During this time, the animals will drink and eat their normal amount of water and food, compensating for the deprivation time. However, this schedule still produces a strong motivation to drink during the testing period.
# Having been deprived of water for twelve to sixteen hours, an animal is placed in a test cage where it is allowed to drink freely for five minutes. This period is used to habituate the animal to the environment and the drinking spout Following the training period, animals have access to water and food in their home cage for 2 hrs. Food is available at all times. Twenty-four hours later, drug is administered to the animal intracerebroventricularly.
# After an indicated delay started from the time of injection the animal is again placed in the test cage for ten minutes. A computer counts each time the animal licks, and after every twentieth lick administers a mild electric stimulus across the tongue and/or feet. The electrical stimulus consists of a 0.6 mA current with a duration of 100 msec. This procedure produces a state of conflict for the animal that is reduced by the administration of clinically used anxiolytic agents (i.e., Valium). For dose-response curves, separate groups of animals are injected with increasing doses of test drug and are tested at a predetermined time.
# mice [1] = experiment: elevated plus-maze; type: in vivo, N.I.H. Swiss-Webster mice
# How it was run: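 Male Swiss-Webster mice (15-20 g), dosed once with drug or vehicle, were placed on an elevated plus-maze 10 min post-injection for 5 min. Open-arm entries and open-arm time recorded, each as a percentage of total arm entries or time; center time excluded.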
# mice [2] = experiment: light/dark transition test; type: in vivo, N.I.H. Swiss-Webster mice; details: IP
# Description: The light/dark transition test (Crawley and Goodwin, Pharmacol. Biochem. Behav. 13:67-70 1980) is based on the observation that rodents naturally tend to explore novel environments, but open, brightly lit arenas are aversive to the rodents and inhibit exploratory behavior (Christmas and Maxwell, Neuropharmacol. 9:17-29 1970; File, J. Neurosci. Meth. 2:219-238 1980).
# Male N.I.H. Swiss-Webster mice (Harlan, Harlan, Indianapolis, IN) weighing 15-20 g were housed four per cage in polyethylene cages with sawdust bedding. The colony room was environmentally controlled (22°C) with a 12 hr light/dark cycle (0600-1800 hr). Food and water were available ad libitum, except during testing. The experiments were run from 0700-1500 hr and groups were counterbalanced for time of day effects. Mice were only administered drug or vehicle once.
# The method used was a modification of methods previously described (Wieland et al., Br. Res. 565:263-268 (1991)). The apparatus included two 2-compartment automated test chambers (Model RXYZCM16, Omnitech Electronics, Columbus, OH). The open compartment was connected to the enclosed compartment via a 7.5 x 7.5 cm passageway. The open compartment was brightly lit using a 200 W incandescent light bulb. The experimental room was kept dark. Interruptions of the infrared beams in either chamber were automatically recorded by being linked to a computer through a Digiscan Analyzer (Omnitech Electronics) and the data was analyzed using the Integrated Lab Animal Monitoring System (Omnitech Electronics).
# N.I.H. Swiss-Webster mice were administered vehicle or test drug intraperitoneally (IP), 10 min later they were placed in the center of the lit compartment. The number of transitions between the lit and dark chambers, total activity in the lit chamber and the time spent in the lit chamber were measured during a 10 min test period.
# mice [3] = details: Rotorod; data from Swinyard & Woodhead 1982; cited from earlier work
# [4] = test system: metrazol induced convulsions; experiment: animal or person; type: in vivo, mice; details: for % Protected: 10 mg/kg
# GR complex = experiment: modulation of [35S]TBPS binding in rat cerebral cortex P2 homogenate; set-up: species or system Sprague-Dawley rats; IMAX: unit not given here; details: for IC50: concentration of compounds to inhibit 50% of control [35S]TBPS binding, 2 nM [35S]TBPS, 25°C, 90 minutes, no unit printed; for IMAX: maximum inhibition of [35S]TBPS binding, I* = Inactive
# How it was run: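 Rat (male Sprague-Dawley) cortical P2 homogenate, 0.5 mg protein, in 50 mM Na/K phosphate pH 7.4, 200 mM NaCl, incubated 90 min at 25° C with 2 nM [35S]TBPS plus GABA and (+)bicuculline, compounds added in DMSO. Filter-bound radioactivity counted; nonspecific binding defined with […].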
# picrotoxin = details: cited from earlier work
# [5] = test system: metrazol induced convulsions; details: cited from earlier work
# maximal electroshock [6] = details: cited from earlier work
# (+)bicuculline = details: cited from earlier work
# maximal electroshock [7] = experiment: maximal electroshock test; type: in vivo, mice; details: Mus musculus, ip, 20% hydroxypropyl-β-cyclodextrin in water
# Description: The anticonvulsant tests are similar to that described above. […]
# strychnine = strychnine administered i.v.; data from Worms et al. 1982; cited from earlier work
smiles,measurement,setting,value
"CC(C)OC1CC2(C)C(CCC3C2CCC2(C)C(C(C)O)CCC32)CC1O (stereo not drawn) [3α,20α-Dihydroxy-2β-isopropoxy-5α-pregnane]",Vogel (% of control),"rats; g-CD, 10 ug",169.0 % of control
"C[C@H](O)[C@H]1CC[C@H]2[C@@H]3CC[C@@H]4C[C@H](O)CC[C@]4(C)[C@H]3CC[C@]12C [3α,20α-Dihydroxy-5β-pregnane]",Vogel (% of control),"rats; g-CD, 10 ug",283.3 % of control
"CC(=O)[C@H]1CC[C@H]2[C@@H]3CC[C@@H]4C[C@H](O)CC[C@]4(C)[C@H]3CC[C@]12C [3α-Hydroxy-5β-pregnan-20-one, reference compound]",entries into the open-arms,mice [1]; 5 mg/kg (p ≤ 0.05),significant increases
same,entries into the open-arms,mice [1]; 10 mg/kg (p ≤ 0.01),significant increases
same,time spent on the open-arms,mice [1]; 10 mg/kg (p ≤ 0.01),significant increases
same,activity,"mice [2]; 10 & 20 mg/kg, compared to control groups",significant (p < 0.01) increases
same,number of transitions between the dark box and the light box,"mice [2]; at doses tested, versus control (Dunnett's t-test)",significantly increased
CCC1(c2ccccc2)C(=O)NC(=O)NC1=O [Phenobarbital],ED50 RR,mice [3],69 mg/kg
"C[C@H](O)[C@H]1CC[C@H]2[C@@H]3CC[C@H]4C[C@H](O)CC[C@]4(C)[C@H]3CC[C@]12C [3α,20a(S)-dihydroxy-5α-pregnane, 3α,20α(S)-Dihydroxy-5α-pregnane]",% Protected,"[4]; IP, micro soln.",30%
same,Vogel (% of control),"rats; b-CD, 10 ug",193.0 % of control
same,IC50,GR complex,99 nM
same,IMAX,GR complex,46
O=C1CN=C(c2ccccc2Cl)c2cc([N+](=O)[O-])ccc2N1 [Clonazepam],ED50 PICRO,"picrotoxin; picrotoxin, data from Swinyard & Woodhead 1982, NP = no protection",0.043 mg/kg
same,ED50 MTZ,"[5]; metrazol, data from Swinyard & Woodhead 1982, NP = no protection",0.009 mg/kg
same,ED50 RR,mice [3],0.184 mg/kg
same,ED50 MES,maximal electroshock [6]; data from Swinyard & Woodhead 1982,93 mg/kg
same,ED50 BIC,"(+)bicuculline; bicuculline, data from Swinyard & Woodhead 1982, NP = no protection",0.0086 mg/kg
"C[C@]12CC[C@@H](O)C[C@@H]1CC[C@@H]1[C@@H]2CC[C@]2(C)[C@@H](C(=O)CO)CC[C@@H]12 [3α,21-dihydroxy-5α-pregnan-20-one, reference compound]",% Protected,"[4]; IP, 50% hpbcd, 10 minutes prior to metrazol (85 mg/kg)",87.5%
same,ED50,"[4]; Mus musculus, metrazol s.c., steroid i.p., 20% hydroxypropyl-β-cyclodextrin in water",8.1 mg/kg
same,ED50,maximal electroshock [7],26.7 mg/kg
same,IC50,GR complex,76 nM
same,IMAX,GR complex,100
NC(=O)CCC/N=C(\c1ccc(Cl)cc1)c1cc(F)ccc1O [Progabide],ED50 PICRO,"picrotoxin; picrotoxin administered i.v., data from Worms et al. 1982",105 mg/kg
same,ED50 MTZ,"[5]; metrazol administered i.v., data from Worms et al. 1982",30 mg/kg
same,ED50 MES,maximal electroshock [6]; data from Worms et al. 1982,75 mg/kg
same,ED50 STR,strychnine,75 mg/kg
same,ED50 BIC,"(+)bicuculline; bicuculline administered i.v., data from Worms et al. 1982",30 mg/kg
"CC(C)(O)[C@H]1CC[C@H]2[C@@H]3CC[C@H]4C[C@H](O)CC[C@]4(C)[C@H]3CC[C@]12C [3α,20-dihydroxy-20-methyl-5α-pregnane]",Vogel (% of control),"rats; g-CD, 20 ug",179.0 % of control
same,IC50,GR complex,176 nM
same,IMAX,GR complex,40
"CCC[C@H](O)[C@H]1CC[C@H]2[C@@H]3CC[C@H]4C[C@H](O)CC[C@]4(C)[C@H]3CC[C@]12C [3α,20α-dihydroxy-21-ethyl-5α-pregnane]",Vogel (% of control),"rats; g-CD, 20 ug",225.8 % of control
same,IC50,GR complex,27 nM
same,IMAX,GR complex,13
"CC(O)C1CCC2C3CCC4CC(O)C(F)CC4(C)C3CCC12C (stereo not drawn) [2β-Fluoro-3α,20α-dihydroxy-5α-pregnane]",Vogel (% of control),"rats; g-CD, 20 ug",264.9 % of control
"C#C[C@@]1(O)CC[C@@]2(C)[C@H](CC[C@@H]3[C@@H]2CC[C@]2(C)[C@@H](C(=O)COC(=O)CCC(=O)O)CC[C@@H]32)C1 [Sodium 3α,21-dihydroxy-3β-ethynyl-5β-pregnan-20-one 21-hemisuccinate]",% Protected,"[4]; mouse, in vivo, ip",50%
same,% Control,"mice [1]; PO, water, 10 mg/kg",159%
same,soluble in water,,> 20 mg/mL
same,IC50,GR complex,540 nM
same,IMAX,GR complex,102
"C[C@@H](O)[C@H]1CC[C@H]2[C@@H]3CC[C@@H]4C[C@H](O)CC[C@]4(C)[C@H]3CC[C@]12C [3α,20β-Dihydroxy-5β-pregnane]",Vogel (% of control),"rats; g-CD, 20 ug",267.3 % of control
"CC[C@H](O)[C@H]1CC[C@H]2[C@@H]3CC[C@H]4C[C@H](O)CC[C@]4(C)[C@H]3CC[C@]12C [3α,20α-dihydroxy-21-methyl-5α-pregnane, 3α,20α-Dihydroxy-21-methyl-5α-pregnane]",Vogel (% of control),"rats; g-CD, 10 ug",157.9 % of control
same,IC50,GR complex,35 nM
same,IMAX,GR complex,28
